Assay results reported in patent US7671061B2, “Methods and compositions for treating pain” (Hydra Biosciences, Inc., priority 2005, dated 2010).
Like-named read-outs stand apart in the source and are kept apart here.

Target: T1, hTRPA1 (Homo sapiens, UniProt O75762, K186N)
T1 construct: expressed in transfected cells; host or cells: HEK293/TREx (Invitrogen), induced with tetracycline
Assay: High throughput Ca2+ fluorescence (Fluo4) assay, AITC stimulation
Type: cell-based
Description: The assay depended on detection of the rise in intracellular Ca^2+ concentration ([Ca^2+]i) following channel activation in cells inducibly expressing the TRPA1 channel. Ca^2+ rise was quantified with the use of fluorescent Ca^2+ indicators that were loaded into cells and thereafter indicated the [Ca^2+]i. Ca^2+ influx followed activation of the TRPA1 channel. Compounds inhibiting the [Ca^2+]i rise were considered hits for further investigation.
These cells were maintained in the growth medium recommended by the manufacturer supplemented with 100 μg/ml hygromycin to promote retention of the TRPA1 construct. After growing to near confluency, cells were plated at a density of ˜25,000 cells/well in 384 well CellBind plates (Corning) in the presence of 1 μg/ml tetracycline, and allowed to grow for 20-30 hrs. A nearly confluent monolayer resulted. Cells were then loaded with Ca^2+ dye: Fura-2/AM or Fluo4/AM was added to the wells to a final concentration of 2 μM or 1 μM, respectively, and incubated for 80 min or 60 min, respectively, at room temperature. […] Frames were acquired at a rate of 0.2 Hz. During the assay, the plates were continuously […], with pipette mixing of wells following addition of each reagent. For the screening assay, 13 μl of a diluted stock (at 50 μM) was added to each well for 2 minutes following the collection of a short (4 frame) baseline. […] Data was collected for ˜3 minutes following addition of AITC, where the fluorescent intensity (for Fluo4) and the F340/F380 ratio (for Fura-2) were proportional to the [Ca^2+]i. Negative controls consisted of HEK293/TREx TRPA1 cells exposed to AITC, but no compound. […] These controls defined a screening window, and “hits” were defined as those compounds inhibiting the fluorescence response by at least 40%. IC50 values were determined for compounds defined as “hits.” The Fluo4 cell-based fluorescence assay was used to determine the intracellular Ca^2+ concentration in the presence of varying drug concentration. […] Compounds were tested in triplicate at all concentrations. Standard software was used to fit IC50 curves.

[1] = Table 1, read-out: hTRPA1 Fluo4 IC50
[2] = Table 2, read-out: hTRPA1 Fluor IC50

T1 sequence (O75762 whole entry K186N): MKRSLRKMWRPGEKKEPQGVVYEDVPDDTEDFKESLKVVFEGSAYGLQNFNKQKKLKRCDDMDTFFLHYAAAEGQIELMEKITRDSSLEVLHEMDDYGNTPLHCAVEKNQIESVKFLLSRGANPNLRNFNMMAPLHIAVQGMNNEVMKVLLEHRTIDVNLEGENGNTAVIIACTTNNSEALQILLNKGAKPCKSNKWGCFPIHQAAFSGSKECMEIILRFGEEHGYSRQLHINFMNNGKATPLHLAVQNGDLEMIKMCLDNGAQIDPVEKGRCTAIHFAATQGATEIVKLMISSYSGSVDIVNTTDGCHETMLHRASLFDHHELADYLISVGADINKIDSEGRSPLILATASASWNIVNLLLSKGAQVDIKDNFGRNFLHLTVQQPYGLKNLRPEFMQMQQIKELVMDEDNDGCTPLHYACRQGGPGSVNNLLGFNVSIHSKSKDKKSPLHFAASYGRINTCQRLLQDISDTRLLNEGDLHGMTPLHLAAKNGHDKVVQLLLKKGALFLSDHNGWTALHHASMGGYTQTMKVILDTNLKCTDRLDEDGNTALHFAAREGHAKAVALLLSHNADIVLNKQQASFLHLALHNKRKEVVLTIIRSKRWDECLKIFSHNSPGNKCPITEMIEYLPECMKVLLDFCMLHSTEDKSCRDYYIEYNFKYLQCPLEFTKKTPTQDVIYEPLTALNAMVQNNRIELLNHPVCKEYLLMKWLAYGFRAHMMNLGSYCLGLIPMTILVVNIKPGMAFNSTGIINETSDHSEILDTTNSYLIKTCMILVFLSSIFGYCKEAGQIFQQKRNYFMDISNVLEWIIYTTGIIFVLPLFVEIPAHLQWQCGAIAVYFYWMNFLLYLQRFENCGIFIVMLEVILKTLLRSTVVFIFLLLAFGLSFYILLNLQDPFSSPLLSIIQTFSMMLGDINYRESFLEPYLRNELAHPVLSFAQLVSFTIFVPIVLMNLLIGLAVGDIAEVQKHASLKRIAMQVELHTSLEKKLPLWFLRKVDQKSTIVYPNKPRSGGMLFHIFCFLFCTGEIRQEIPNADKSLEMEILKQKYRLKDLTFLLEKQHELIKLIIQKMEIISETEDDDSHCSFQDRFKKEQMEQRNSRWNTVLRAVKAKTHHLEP

IC50 [1] | IC50 [2] | SMILES
> 10 µM | – | CCN(CC)C(=O)C1=C(C)NC(=S)NC1c1ccc(C)cc1 (stereo not shown)
> 10 µM | – | CCN(CC)C(=O)C1=C(C)NC(=S)NC1c1cc(OC)ccc1OC (stereo not shown)
≤ 5 µM | – | COC(=O)C1=C(C)N(C)C(=S)NC1c1cccc(Cl)c1Cl (stereo not shown)
> 10 µM | – | COC(=O)C1=C(C)N(C)C(=O)NC1c1c(F)cccc1Cl (stereo not shown)
> 10 µM | – | CCN(CC)C(=O)C1=C(C)NC(=S)NC1c1ccccc1OC (stereo not shown)
> 10 µM | – | CCN(CC)C(=O)C1=C(C)NC(=S)NC1c1ccccc1 (stereo not shown)
> 10 µM | – | CCOC(=O)C1=C(C)N(C)C(=S)NC1c1cccc(Cl)c1Cl (stereo not shown)
> 10 µM | – | CCN(CC)C(=O)C1=C(C)NC(=O)NC1c1c(F)cccc1Cl (stereo not shown)
> 10 µM | – | CCN(CC)C(=O)C1=C(C)NC(=S)NC1c1ccc(Br)cc1 (stereo not shown)
≤ 10 µM | – | C=CCOC(=O)C1=C(C)NC(=S)NC1c1cccc(OC)c1 (stereo not shown)
> 10 µM | – | CCN1C(=O)NC(c2c(F)cccc2Cl)C(C(=O)OC)=C1C (stereo not shown)
> 10 µM | – | C=CCOC(=O)C1=C(C)NC(=S)NC1c1ccccc1F (stereo not shown)
> 10 µM | – | CCN(CC)C(=O)C1=C(C)NC(=S)NC1c1ccccc1F (stereo not shown)
> 10 µM | – | CSc1ccc(C2NC(=O)NC(C)=C2C(=O)OCc2ccccc2)cc1 (stereo not shown)
> 10 µM | – | COC(=O)C1=C(C)N(C)C(=O)NC1c1ccccc1C (stereo not shown)
> 10 µM | – | COC(=O)C1=C(C)N(C)C(=O)NC1c1c(Cl)cccc1Cl (stereo not shown)
> 10 µM | – | CCOc1ccc(C2NC(=S)NC(C)=C2C(=O)OC(C)C)cc1 (stereo not shown)
≤ 5 µM | – | CCOC(=O)C1=C(C)NC(=S)NC1c1cccc(OC2CCCC2)c1 (stereo not shown)
> 10 µM | – | CC1=C(C(=O)OC2CCCC2)C(c2ccc(C)c(Br)c2)NC(=O)N1 (stereo not shown)
> 10 µM | – | CCN1C(=O)NC(c2ccccc2Br)C(C(=O)OC)=C1C (stereo not shown)
> 10 µM | – | CCN1C(=O)NC(c2ccc(Cl)cc2Cl)C(C(=O)OC)=C1C (stereo not shown)
> 10 µM | – | CCOC(=O)C1=C(C)NC(=S)NC1c1ccccc1OC1CCCC1 (stereo not shown)
> 10 µM | – | CCN1C(=O)NC(c2cc(C)ccc2C)C(C(=O)OC)=C1C (stereo not shown)
> 10 µM | – | CCOC(=O)C1=C(CN2CCCCC2)NC(=O)NC1c1cc(C)ccc1C (stereo not shown)
> 10 µM | – | CCOC(=O)C1=C(CN2CCC(C)CC2)NC(=O)NC1c1ccc(Cl)cc1 (stereo not shown)

IC50 [1] | IC50 [2] | SMILES
> 10 µM | – | CCOC(=O)C1=C(CN2CCN(C)CC2)NC(=O)NC1c1ccc(Cl)cc1 (stereo not shown)
> 10 µM | – | CCOC(=O)C1=C(CN2CCN(C)CC2)NC(=O)NC1c1cc(C)ccc1C (stereo not shown)
> 10 µM | – | CCOC(=O)C1=C(CN2CCc3ccccc32)NC(=O)NC1c1cc(C)ccc1C (stereo not shown)
> 10 µM | – | CCOC(=O)C1=C(CN2CCc3ccccc32)NC(=O)NC1c1cccc([N+](=O)[O-])c1 (stereo not shown)
> 10 µM | – | CCOC(=O)C1=C(C)NC(=S)NC1c1ccc(C)cc1C (stereo not shown)
> 10 µM | – | COC(=O)C1=C(CN2CCN(C)CC2)NC(=O)NC1c1cc(C)ccc1C (stereo not shown)
> 10 µM | – | CCOC(=O)C1=C(CN2CC(C)CC(C)C2)NC(=O)NC1c1ccc(Cl)cc1 (stereo not shown)
≤ 10 µM | – | CCOC(=O)C1=C(CN2CCc3ccccc32)NC(=O)NC1c1ccc(Cl)cc1 (stereo not shown)
> 10 µM | – | COC(=O)C1=C(CN2CCCCC2)NC(=O)NC1c1ccc(C)cc1C (stereo not shown)
> 10 µM | – | COC(=O)C1=C(CN2CCCC2)NC(=O)NC1c1cc(C)ccc1C (stereo not shown)
> 10 µM | – | CCOC(=O)C1=C(C(C)C)NC(=O)NC1c1ccc(F)cc1 (stereo not shown)
> 10 µM | – | COC(=O)C1=C(CN2CCc3ccccc32)NC(=O)NC1c1cc(C)ccc1C (stereo not shown)
> 10 µM | – | CCN(CC)C(=O)C1=C(C)NC(=O)NC1c1ccc(OC)c(Cl)c1 (stereo not shown)
– | > 10 µM | CCNC(=O)Cn1cnc2c1c(=O)n(C)c(=O)n2C [Compound 216]
– | > 10 µM | Cn1c(=O)c2c(ncn2CC(=O)NC2CCCC2)n(C)c1=O [Compound 218]
– | > 10 µM | CC(NC(=O)Cn1cnc2c1c(=O)n(C)c(=O)n2C)c1ccccc1 (stereo not shown) [Compound 220]
– | > 10 µM | Cn1c(=O)c2c(ncn2CC(=O)Nc2ccccc2Cl)n(C)c1=O [Compound 221]
– | > 10 µM | Cc1ccc(NC(=O)Cn2cnc3c2c(=O)n(C)c(=O)n3C)c([N+](=O)[O-])c1 [Compound 222]
– | ≤ 10 µM | Cn1c(=O)c2c(ncn2CC(=O)Nc2cccc([N+](=O)[O-])c2)n(C)c1=O [Compound 223]
– | ≥ 30 µM | Cc1cc([N+](=O)[O-])ccc1NC(=O)Cn1cnc2c1c(=O)n(C)c(=O)n2C [Compound 227]
– | > 10 µM | Cn1c(=O)c2c(ncn2CC(=O)Nc2cccc3ccccc23)n(C)c1=O [Compound 231]
– | > 10 µM | Cn1c(=O)c2c(ncn2CC(=O)NCc2ccc(F)cc2)n(C)c1=O [Compound 238]
– | > 10 µM | Cn1c(=O)c2c(ncn2CC(=O)NCCc2ccccn2)n(C)c1=O [Compound 241]
– | > 10 µM | Cn1c(=O)c2c(ncn2CC(=O)NCc2ccncc2)n(C)c1=O [Compound 242]
